Patent EP1626095A1, “Fluorescence-based kinetic determination of transglutaminase activity” (N-Zyme BioTec GmbH, priority 2004, dated 2006)
Where a SMILES comes first, the peptide text is derived from it. [ ]: non-standard residue; d: D form. The star is where a group is joined. X1 = O=[N+]([O-])c1ccc(NCCCCCN*)c([N+](=O)[O-])c1; 2Abz = Nc1ccccc1C(=O)O

Key:
[1] = target: T1, gereinigte rekombinante humane Transglutaminase 2 (Homo sapiens, UniProt P21980); experiment: Selectivity test: fluorescence-based kinetic transglutaminase activity measurement (release of quencher from substrate peptide), Ansatz 2; format: biochemical; conditions: substrate peptide 50 µM; rhHis6TG2 0,25 µM; 6 % DMSO; Exc.: 310 nm Em.: 427 nm, 20 min
T1 construct: His6
T1 sequence (P21980 1-687): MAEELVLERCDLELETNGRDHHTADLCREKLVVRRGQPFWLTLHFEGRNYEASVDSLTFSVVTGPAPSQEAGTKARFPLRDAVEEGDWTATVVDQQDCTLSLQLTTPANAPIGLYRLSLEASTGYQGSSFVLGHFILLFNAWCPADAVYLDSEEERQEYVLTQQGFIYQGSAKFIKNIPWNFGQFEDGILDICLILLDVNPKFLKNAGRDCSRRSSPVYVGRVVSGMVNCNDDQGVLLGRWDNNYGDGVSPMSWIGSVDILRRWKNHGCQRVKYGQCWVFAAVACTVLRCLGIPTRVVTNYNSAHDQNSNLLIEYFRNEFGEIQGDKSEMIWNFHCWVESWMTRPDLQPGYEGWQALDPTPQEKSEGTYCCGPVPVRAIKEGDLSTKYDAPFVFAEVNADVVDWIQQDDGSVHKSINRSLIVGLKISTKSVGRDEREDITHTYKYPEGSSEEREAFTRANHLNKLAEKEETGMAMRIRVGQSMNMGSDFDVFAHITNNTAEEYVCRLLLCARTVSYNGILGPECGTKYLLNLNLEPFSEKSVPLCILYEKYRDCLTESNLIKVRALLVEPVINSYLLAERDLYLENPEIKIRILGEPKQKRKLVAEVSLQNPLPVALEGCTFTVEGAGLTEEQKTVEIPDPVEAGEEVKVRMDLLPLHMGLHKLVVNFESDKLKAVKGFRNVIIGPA
Excerpt: (§1) Selektivität der Messungen verschiedener Transglutaminasen
2. Ansatz: Abz-Asn-Glu(CAD-DNP)-Glu-Gln-Val-Ser-Pro-Leu-Thr-Leu-Leu-Lys (2) Transglutaminase: gereinigte rekombinante humane Transglutaminase 2

Faktor XIII = target: T2, Faktor XIII (Homo sapiens, UniProt P00488); experiment: Selectivity test: fluorescence-based kinetic transglutaminase activity measurement (release of quencher from substrate peptide), Ansatz 1; format: biochemical; conditions: substrate peptide 50 µM; Faktor XIII: 100 µl Citratplasma; 6 % DMSO; Exc.: 310 nm Em.: 427 nm, 20 min
T2 construct: 100 µl Citratplasma; from tissue; host or cells: citrate plasma
T2 sequence (P00488 39-732 limits assumed): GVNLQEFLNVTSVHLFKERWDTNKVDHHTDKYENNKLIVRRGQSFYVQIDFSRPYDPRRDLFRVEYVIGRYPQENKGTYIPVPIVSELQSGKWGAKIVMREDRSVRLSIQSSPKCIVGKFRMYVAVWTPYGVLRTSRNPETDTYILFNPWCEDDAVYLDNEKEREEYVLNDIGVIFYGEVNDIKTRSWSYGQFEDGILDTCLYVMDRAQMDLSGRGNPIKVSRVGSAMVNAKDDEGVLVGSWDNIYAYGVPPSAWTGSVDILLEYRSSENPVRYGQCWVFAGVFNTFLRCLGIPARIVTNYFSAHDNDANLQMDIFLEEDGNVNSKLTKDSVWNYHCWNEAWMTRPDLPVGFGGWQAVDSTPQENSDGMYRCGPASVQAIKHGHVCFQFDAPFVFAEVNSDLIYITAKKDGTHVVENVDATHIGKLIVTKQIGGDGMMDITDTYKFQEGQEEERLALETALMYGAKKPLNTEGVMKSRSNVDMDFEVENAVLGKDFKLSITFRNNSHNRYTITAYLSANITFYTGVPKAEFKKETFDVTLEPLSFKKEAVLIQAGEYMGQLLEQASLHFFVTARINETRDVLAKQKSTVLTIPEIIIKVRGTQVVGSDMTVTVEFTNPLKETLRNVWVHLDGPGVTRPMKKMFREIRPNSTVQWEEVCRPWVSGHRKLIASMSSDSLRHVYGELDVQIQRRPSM
Excerpt: as §1
1. Ansatz: Substratpeptid: Abz-Ala-Pro-Glu(CAD-DNP)-Gln-Glu-Ala (3), Transglutaminase: Faktor XIII

Compound	Ergebnis (Anstieg der Fluoreszenz) [1]	Ergebnis (Anstieg der Fluoreszenz) (Faktor XIII)
2-Aminobenzoyl-L-asparaginyl-N^δ-[N-(2,4-dinitrophenyl)1-5-aminopentyl]-L-glutaminyl-L-glutamyl-L-glutaminyl-L-valinyl-L-serinyl-L-prolinyl-L-leucinyl-L-threoninyl-L-leucinyl-L-leucin-L-lysin [Verbindung 2]	kein Anstieg der Fluoreszenz	
C[C@H](NC(=O)[C@H](CCC(=O)O)NC(=O)[C@H](CCC(N)=O)NC(=O)[C@H](CCC(=O)NCCCCCNc1ccc([N+](=O)[O-])cc1[N+](=O)[O-])NC(=O)[C@@H]1CCCN1C(=O)[C@H](C)NC(=O)c1ccccc1N)C(=O)O [Verbindung 3] (H-[2Abz]APE(X1)QEA-OH)		Ergebnis: kein Anstieg der Fluoreszenz
